Source: the METLIN SMRT retention time set (Domingo-Almenara et al. 2019)

test: gradient 5% acetonitrile 3 min, to 50% in 2 min, to 85% in 15 min, held 3 min, 100 µL/min; conditions: column: Zorbax Extend-C18 2.1 x 50 mm; eluents: water / acetonitrile, 0.1% formic acid
In short: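 Data were gathered over 3 months by HPLC coupled to a quadrupole time-of-flight mass spectrometer, operated in positive and negative ionization mode. Mixtures of ~100 pure standards ran on a Zorbax Extend-C18 column (2.1 × 50 mm, 1.8 μm) at 100 μL/min, with water and acetonitrile each containing 0.1% formic acid and dead and dwell volumes of 40 μL and 900 μL. Retention time was read from adduct peaks picked by computer and checked manually.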

SMILES	RP-LC retention time [s]
O=C(NCCC1=CCCCC1)C(=O)NCC1OCCCN1S(=O)(=O)c1ccccc1 (stereo not drawn)	911
COc1ccc(OC)c(CNC(=O)c2ccc3c(c2)NC(=O)C2CCCCN32)c1 (stereo not drawn)	806
Cc1noc([C@@H]2CN(Cc3ccccc3C(F)(F)F)C[C@H]2CO)n1	604
CC1CCN(c2cc(C(=O)O)c3cc(NC(=O)c4ccc(Br)cc4)ccc3n2)CC1	689
CCCn1nc(C)cc1CN(C)C(=O)c1cn2ccccc2n1	591
CCOc1ccccc1NC(=O)C1CCCN1S(=O)(=O)c1cc2c(cc1C)NC(=O)C(C)O2 (stereo not drawn)	784
CCN(CC)c1nc(-c2ccc([N+](=O)[O-])cc2)nc2ccccc12	771
CCOc1cc(=O)c(C(=O)N2CCC(C(N)=O)CC2)nn1-c1ccc(F)c(F)c1	625
CC(C)Cn1c(=O)c(C(=O)NCc2cccc(F)c2)nc2cccnc21	609
O=C(CN1CC(c2nc(-c3cccs3)no2)C1)N1CCc2ccccc21	605
Cc1ccc(-c2nc3cnc(Br)cn3c2Nc2ccc3c(c2)OCO3)cc1	982
O=C(NCc1nnnn1-c1ccc(Cl)cc1)c1ccc(S(=O)(=O)N2CCCC2)cc1	773
Cc1nc(-c2ccccc2)cc2nn(CC(=O)Nc3ccccc3Cl)c(=O)n12	966
O=c1n(Cc2ccccc2)nc2n1CCN(S(=O)(=O)c1ccc3c(c1)OCCO3)CC2	818
CCCNc1cc(N2CCC(CCC(=O)NCc3cc(F)cc(F)c3)CC2)ncn1	704
COc1ccc(-c2csc(NC(=O)CSc3nc4c(cc3C#N)CCCC4)n2)cc1	1180
CCCN1C(=O)CCc2cc(NC(=O)c3ccn(CC)n3)ccc21	756
Cc1cc(C)cc(NC(=O)C2CCCN(c3ncnc4c3nc3n4CCCCC3)C2)c1 (stereo not drawn)	907
COCCCNCc1ccc(-c2ccccc2Cl)o1	672
Cc1ccc(NC(=O)CSc2nc(N3CCCCC3)nc3ccccc23)cc1F	789
O=C(C1CCC1)N1CCc2sc(S(=O)(=O)NCc3ccc(F)cc3Cl)cc2C1	948
Cc1nc(-c2noc(-c3ccccc3)n2)cn1CC(=O)NCc1ccccc1	810

SMILES	RP-LC retention time [s]
CCc1cc(N2CCN(C(=O)c3ccccc3)CC2)nc2nnc(C)n12	604
CS(=O)(=O)N1CCC(C(=O)Nc2cccc(C(F)(F)F)c2)Oc2ccccc21 (stereo not drawn)	972
COc1ccc(-n2nnc(-c3nsc(Nc4ccc(Cl)cc4)n3)c2C)cc1	1060
CCN1CCCC1CN(CC(=O)N1CCNCC1)S(=O)(=O)c1cc(C)ccc1C (stereo not drawn)	581
O=C(CCc1ccccc1)Nc1cnn(-c2ncncc2N2CCOCC2)c1	649
CCn1ccc2sc(C)c(C(=O)N3CCN(c4ccc(OC)cc4)CC3)c2c1=O	714
COc1ccc(C2Cn3nnc(-c4nc(-c5ccc(F)cc5)no4)c3CO2)cc1 (stereo not drawn)	1130
Cc1cccc(-c2noc(-c3ccc(N4CCN(c5ccccc5F)CC4)nc3)n2)c1	613
CCOC(=O)c1c(N2C(=O)CC(Sc3ccccc3C(=O)O)C2=O)sc(C)c1C (stereo not drawn)	821
Cc1nncn1C1CCN(S(=O)(=O)c2ccccc2F)CC1	654
COc1ccc2c(c1)C13CCN(C)C(C2)C1CCC1(C3)OCCO1 (stereo not drawn)	645
CCCCc1ccc(NC(=O)CSc2nccc(N3CCCC3)n2)cc1	803
CCc1noc(-c2cnc3nc(C)ccc3c2Nc2ccccc2C)n1	818
Cc1cccc(NC(=O)C2CCN(S(=O)(=O)c3cc(C(=O)N4CCCC4)cs3)CC2)c1	819
COc1nc2ccccc2nc1N1CCCC(C(=O)NCc2ccc(Cl)cc2)C1 (stereo not drawn)	1110
N#Cc1cccc(C(=O)N2CCN3CCS(=O)(=O)N(C4CC4)C(=O)C3C2)c1 (stereo not drawn)	714
Cc1nc(C)c(C(=O)N2CCC(C3CCN(S(C)(=O)=O)CC3)C2)s1 (stereo not drawn)	656
CCn1c(=O)c(N2CCN(C(=O)NCCCOC)CC2)nc2ccccc21	727
Cc1cc(C)cc(NC(=O)Cn2nc(N3CCCCCC3)c3ccccc3c2=O)c1	1110
O=C(Cn1ncc2c(N3CCN(c4ccccn4)CC3)ncnc21)Nc1ccc(Cl)cc1	643
Cn1nc2n(c1=O)CCN(C(=O)c1ccsc1)CC2	570
CCOC(=O)c1[nH]c(C)c(CCC(=O)NC(C)c2ccc3c(c2)OCCO3)c1C (stereo not drawn)	821

SMILES	RP-LC retention time [s]
Cc1oc(C(C)C)nc1C(=O)Nc1ccc(Cl)cc1	1150
Cc1ccccc1CNC(=O)Cn1cccc1-c1nnc(C2CCC2)o1	920
CCc1ccc(CN2C(=O)CN(S(C)(=O)=O)CC2(C)C(=O)NCc2ccccc2)cc1 (stereo not drawn)	868
CCOC(=O)c1[nH]c(C)c(C(=O)C(C)N(C(=O)c2cccc(F)c2)C(C)C)c1C (stereo not drawn)	883
CN1C(=O)COc2ccc(-c3csc(NC(=O)c4cccnc4)n3)cc21	733
CCOc1ccc(-n2c(=O)c3sccc3n(Cc3nc(-c4ccccc4)no3)c2=O)cc1	1010
NS(=O)(=O)c1ccc(NS(=O)(=O)c2ccc3onc(C(=O)N4CCCCC4)c3c2)cc1	782
COc1cccc(-c2nc(C3CCN(S(=O)(=O)c4cc(C)c(C)cc4C)CC3)no2)c1	1280
CCn1ccc2ccc(CCC(=O)N3CCN(c4ccc(F)cc4)CC3)cc21	1030
CCOCC(=O)N1CC(c2nc(CCOC)no2)C1	600
Cc1ccc2c(c1)N(S(C)(=O)=O)CCC(C(=O)Nc1ccc(Br)cc1F)O2 (stereo not drawn)	1030
Cc1cccc(-c2noc(C3CCCN3S(=O)(=O)c3ccc4c(c3)CCCC4)n2)c1 (stereo not drawn)	1340
CCOc1ccccc1NC(=O)N1CCC2(CC1)NC(=O)c1ccccc1N2C	807
COCc1nnc(NC(=O)C2CC(=O)N(CCc3c[nH]c4ccc(Cl)cc34)C2)s1 (stereo not drawn)	724
CCOC(=O)c1ccc(NC(=O)c2cc3c(=O)n(CC(C)C)c4ccccc4n3n2)cc1	750
COc1ccc(C)cc1NC(=O)N1CCCC1c1cc(C(C)C)on1 (stereo not drawn)	1050
Cc1cc(NC(=O)Cn2c(=O)oc3ccccc32)n(-c2nc3c(F)cccc3s2)n1	1040
COc1ccc(-c2c(C)noc2NC(C)=O)cc1S(=O)(=O)N1CCN(c2ccccn2)CC1	612
Cc1cccc(Cn2nc3ccc(S(=O)(=O)N4CCCCC4)cn3c2=O)c1	915
CCc1ccccc1NC(=O)Cn1c(CC)nc2c(c1=O)CN(Cc1ccccc1)CC2	666
O=C(CCc1c(-c2ccc(F)cc2)nc2ccccn12)N1CCN(c2ccccc2)CC1	693
Cc1noc(C)c1CCC(=O)N1CCC2(CC1)CC(CCOCC1CC1)CCO2 (stereo not drawn)	831

SMILES	RP-LC retention time [s]
Cc1ccc(=O)n(-c2ccccc2)c1	739
O=C(Nc1ccc(Cl)cn1)C(=O)c1cccn1Cc1ccccc1	1180
CCc1ccccc1NC(=O)N1CCc2nc(-c3ccccc3)ncc2C1	924
O=S(=O)(c1cccc(F)c1)N1CC(n2cc(COc3ccc(F)cc3)nn2)C1	923
CCC1CN(C(=O)N2CCC(C(=O)NCc3ccco3)CC2)c2cc(C)ccc2O1 (stereo not drawn)	872
Cc1noc(C)c1-c1ccc(S(=O)(=O)NCc2ccc(F)cc2)cc1	942
O=C(C1CCN(S(=O)(=O)c2cc(-c3noc(C4CCC4)n3)cs2)CC1)N1CCCCCC1	1050
Cc1nc2c(NC(=O)c3ccccn3)cccn2n1	763
COc1ccc(NC(=O)C2=C(C)NC(=O)NC2c2ccccc2Br)c(OC)c1 (stereo not drawn)	698
CCN1c2cc(Cl)ccc2C(=O)NC12CCN(C(=O)Nc1ccc(OC)cc1)CC2	895
CC(=O)N(Cc1nn(C)c2c1CN(S(=O)(=O)c1cc(C)ccc1C)CC2)c1ccccc1	856
COc1ccccc1-c1noc(CN2C(=O)C(C)Oc3ccccc32)n1 (stereo not drawn)	944
Cn1nccc1-c1csc(S(=O)(=O)NC2CCCCC2)c1	877
CC1(C)CC(=O)c2cn(-c3ccc(F)cc3)c(=O)c(C(=O)Nc3cccnc3)c2C1	707
CN(CC(=O)N1CCN(c2ccccc2F)CC1)S(=O)(=O)c1c[nH]c(C(=O)N2CCCCC2)c1	836
Cc1ccc(-c2cc3c4nnc(SCC(=O)NC5CCCCC5)n4ccn3n2)cc1C	978
COc1cc(-c2ccc(NC(=O)NC3CC3)c(OC)c2)ccc1NC(=O)NC1CC1	824
CNC(=O)Nc1ccc(C2(C(=O)NCc3ccc(F)cc3Cl)CCC2)cc1	784
Cc1ccc(NC(=O)N2CCC(n3cnnc3C3CC3)C2)cc1 (stereo not drawn)	635
Cc1ccc(F)c(NS(=O)(=O)c2cc(-c3[nH]ncc3C(=O)N(C)C)oc2C)c1	676
CCc1ccc(NC(=O)Cn2cc(C(=O)N3CCCC3)c(=O)c3ccc(C)nc32)cc1	759
O=C(NCCC1CCN(C(=O)Nc2ccc(F)cc2)CC1)c1ccoc1	716
